Measurements reported in US8680129B2, “Compounds, composition, methods, targets for cancer therapy” (priority 2008, dated 2014).
Read-outs that look alike come from different tables or passages of the source.

How the values were obtained:
UM-SCC-6 cells = experiment: pUC19 DNA transfection plus chemotherapeutic drug, cell viability; type: cell-based, human; conditions: for IC50: Homo sapiens, read-out: IC50 of 5-FU; for IC50 of Cis-Platinum: UM-SCC-6 cells
Method: UM-SCC-6 cells were transfected with pUC19 DNA, pcDNA3, pUC19+pcDNA3, IKK1-KA+pUC19, IKK2-KA+pUC19, and IKK1-KA+IKK2-KA+pUC19, IKK1-KA+pcDNA3, IKK2-KA+pcDNA3, or IKK1-KA+IKK2-KA+pcDNA3, for 48 hours and, treated with variable doses of 5-FU (FIG. 6A) or Cis-Platinum (FIG. 6B) for […] respectively. Cell viabilities were measured in 72 and 96 hours respectively after drug treatment.

SK-Mel-5 cells = experiment: WST-3 with apigenin, cell viability by CCK8; type: cell-based, human; conditions: for cell death, single agent: apigenin or WST-3 alone
Method: (§1) Method: UM-SCC6, HT1080, Cal27, SK-Mel-5, and HEKa cells were treated with 50 or 100 μM WST-3 or 10 or 30 μM apigenin alone, or combination of WST-3 and apigenin at different concentrations for 4 hours with untreated cells as control, then, changed to normal growth medium and remained culture in this medium for another 24 hours. After the 24 hours culture, cell viabilities were measured with CCK8 Kit. Data were normalized to % of untreated control cells.

non cancer HEKa cells = experiment: WST-3 with apigenin, cell viability by CCK8; type: cell-based, human; conditions: for cell death, single agent: apigenin or WST-3 alone
Method: as §1

MDA-MB-231 cells = experiment: WST-1r and apigenin dose-response, cell viability by CCK8; type: cell-based
Method: (§2) Method: UM-SCC6, MDA-MB-231, Cal27, HT1080, T294, B6-5 and A431 cells were treated with 3% or 10% of WST-1r or 10, 30, or 100 μM apigenin or combination of variable concentrations of WST-1r with apigenin in parallel with untreated control cells and DMSO control for 4 hours, then, the treatments were removed and the cells, thus, treated were changed to normal growth medium and maintained in culture for another 24 hours. DMSO was used as vehicle control. Cell viabilities were measured by CCK8 Kit and normalized to % of untreated control calls.

A431 cells = experiment: as above; type: cell-based
Method: as §2

HT1080 cells [1] = experiment: mPMS dose-response with WST-1c and apigenin, cell viability; type: cell-based, human; conditions: mPMS variable with 1 mM WST-1c and 10, 30 or 100 μM apigenin
Method: (§3) Method: A & B: HT1080 (FIG. 16A) and UM-SCC6 (FIG. 16B) cells were treated with variable concentrations of mPMS as indicated in combination with 1 mM WST-1c and 10, 30 or 100 μM apigenin for 4 hours and, then, changed to normal growth medium for another 24 hours. Cell viabilities were measured by CCK8 Kit. 1 mM WST-1 only, 0.12 mM mPMS only and 10% WST-1r were used as parallel control. AP 0: Untreated Control, AP 10: 10 μM Apigenin, AP 30: 30 μM Apigenin, AP 100: 100 μM Apigenin.

UM-SCC6 cells [2] = experiment: as above; type: cell-based, human; conditions: mPMS variable with 1 mM WST-1c and 10, 30 or 100 μM apigenin
Method: as §3

[3] = system: ROS generation in UM-SCC6 cells; experiment: Dose response of ROS generation (CM-H2-DCFDA fluorescence); type: cell-based, human
Method: Method: UM-SCC6 cells were labeled with 10 μM CM-H2-DCFDA for 15 minutes and then treated with WST-1r or CCK8 at the indicated amounts in combination with variable doses of apigenin (A) or IKK Inhibitor III (B) for 4 hours. Fluorescence at Ex485/Em535 were measured for detecting ROS generation that labeled by the CM-H2-DCFDA.

UM-SCC6 cells [4] = experiment: CCK8, XTT, WST-1r comparison in combination with apigenin, cell viability; type: cell-based, human; conditions: for IC50: Homo sapiens, read-out: Apigenin 1050
Method: Method: HT1080 and UM-SCC6 cells were treated with 10% of WST-1r, CCK8 or XTT in combination with variable doses of apigenin for 4 hours and, then changed to normal growth medium for another 24 hours. Cell viability was measured with CCK8 kit.

[5] = system: UM-SCC6, HT1080, Cal27, SK-Mel-5, and HEKa cells; experiment: WST-3 or apigenin alone, cell viability, all tested lines; type: cell-based, human; conditions: 50 µM WST-3 or 30 μM apigenin alone, 4 hours then 24 hours
Method: as §1

[6] = system: phosphorylated JNK in UM-SCC6 cells; experiment: JNK phosphorylation (FACE Kit); type: cell-based, human; conditions: 4 hours
Method: Method: UM-SCC6 cells were treated with WST-1r and apigenin at the indicated doses for 4 hours, and then phosphorylated JNK and total JNK were measured in parallel with FACE Kit (Qiogen). The resulting data were normalized to total cell number measured by crystal violet staining The phosphorylated JNK from each measurement were normalized to the ratio of phosphorylated JNK over total JNK values.

[7] = system: UM-SCC6, Cal27 and HEKa cells; experiment: Modified WST-1r and Apigenin, cancer versus non-cancer cells, single agents; type: cell-based, human; conditions: 10% modified WST-1r (mPMS 20 μM, WST-1c 1 mM) or Apigenin 30 or 100 μM, 4 hours then 24 hours
Method: Comparison of cell responses to modified WST-1r and Apigenin combination treatment between cancer cells and non-cancer cells. UM-SCC6, Cal27 human head and neck cancer cell lines and primary cultured human […] keratinocytes (HEKa) as labeled were treated with 10% modified WST-1r (mPMS 20 μM, WST-1c 1 mM) with (WST-1r 10) or without (WST-1r 0) 10% modified WST-1r in combination with 0 (Apigenin 0), 30 (Apigenin 30) or 100 (Apigenin 100) μM Apigenin for 4 hours, then, changed to apigenin in the corresponding concentrations for another 24 hours.

HT1080 cells [8] = experiment: pUC19 DNA transfection plus chemotherapeutic drug, cell viability; type: cell-based, human; conditions: for IC50 of Cis-Platinum: HT1080 cells
Method: HT1080 Cells were transfected with pUC19 DNA, pcDNA3, pUC19+pcDNA3, IKK1-KA+pUC19, IKK2-KA+pUC19, and IKK1-KA+IKK2-KA+pUC19, IKK1-KA+pcDNA3, IKK2-KA+pcDNA3, or IKK1-KA+IKK2-KA+pcDNA3, for 48 hours before the treatment of chemotherapy drugs at various doses. Cell viability was measured in 72 and 96 hours after drug treatment.
Drug treatment: Cis-Platinum 30 ng/ml-3 μg/ml (FIG. 6D), Paclitaxel 1 nM-10 μM (FIG. 6C), 5-FU 50 nM-500 μM (data not shown), Doxorubicin 30 nM-3.3 μM (data not shown).

HT1080 cells [9] = experiment: siRNA or Puc19 transfection combined with Taxel, cell viability by CCK8; type: cell-based, human; conditions: 72 hours after the treatment
Method: Method: HT1080 cells transfected with siRNAs that were derived from Puc19 DNA sequence and the siRNAs that targeting the corresponding genes that are the targets of the Puc19 derived siRNAs for 24 hours, then, treated with Taxel at 3, 10, 30, and 100 nM for 48 hours. After the 48 hours of Taxel treatment, cells in culture were changed to normal growth medium for 24 to 72 hours. Cell viability was monitored by CCK8 Kit every 24 hours. Data are normalized to % of untreated control cells. The siRNAs that used for this study includes siRNA#1, siRNA#2, siRHA#3, siRNA targeting TRPC6, SH3PXD2B, C6orf108, TTBK1, MAGI3, and TMEM182 as well as combination of siRNA#2+#3, and siRNA#1+#2+#3+#4+#5 (siRNAΣ1-5).

HT1080 cells [10] = experiment: Other tetrazolium salts as substitutes of WST-1r with apigenin, cell viability; type: cell-based, human; conditions: 1 mM WST-1, 0.4 mM WST-3, 0.5 mM WST-4, 0.5 mM WST-5, 0.12 mM mPMS; apigenin 10, 30 or 100 μM; 4 hours then 24 hours
Method: (§4) Method: HT1080 and UM-SCC6 cells were treated with 1 mM WST-1, 0.4 mM WST-3, 0.5 mM WST-4, 0.5 mM WST-5 or 0.12 mM mPMS alone or each of the WST-3, WST-4, and WST-5 at the same concentration in combination with 0.12 mM mPMS (0.4 mM WST-3+0.12 mM mPMS, 0.5 mM WST-4+0.12 mM mPMS, 0.5 mM WST-5+0.12 mM mPMS) plus 10, 30 or 100 μM apigenin for 4 hours and, then changed to normal growth medium for another 24 hours. Cell viability was measured with CCK8 Kit.

UM-SCC6 cells [11] = experiment: as above; type: cell-based, human; conditions: 1 mM WST-1, 0.4 mM WST-3, 0.5 mM WST-4, 0.5 mM WST-5, 0.12 mM mPMS; apigenin 10, 30 or 100 μM; 4 hours then 24 hours
Method: as §4

[12] = 4 hours, then 24 hours normal medium, combination 3% WST-1r with 100 μM apigenin or 10% WST-1r with 30 μM apigenin
[13] = combination of 30 μM apigenin and WST-3

## O=c1[nH]cc(F)c(=O)[nH]1 [5-FU, 5-fluoro-2,4-(1H,3H) pyrimidinedione]
UM-SCC-6 cells; pUC19 transfected UM-SCC6 cells
  IC50: 200 µM
UM-SCC-6 cells; untransfected UM-SCC6 cells
  IC50: > 1000 µM

## O=c1cc(-c2ccc(O)cc2)oc2cc(O)cc(O)c12 [Apigenin, 4H-1-benzopyran-4-one,5,7-dihydroxy-2-(4-hydroxy-phenyl)-(9CI)]
SK-Mel-5 cells
  cell death, single agent: dose dependent but limited cell death
Non cancer HEKa cells
  cell death, single agent: limited cell death
MDA-MB-231 cells; [12]
  cell death / cell survival: little effect on cell survival
MDA-MB-231 cells; Homo sapiens, MDA-MB-231, in the presence of 10% WST-1r
  IC50: 10 µM
A431 cells; [12]
  cell death / cell survival: little effect on cell survival
A431 cells; Homo sapiens, A-431, in the presence of 10% WST-1r
  IC50: 10 µM
HT1080 cells [1]
  cell death: dose dependent cell death
UM-SCC6 cells [2]
  cell death: dose dependent cell death
[3]; 4 hours
  ROS generation, agent alone: no effect on ROS generation
[3]; apigenin combined with CCK8, apigenin dose dependent
  ROS generation: increase the ROS generation
UM-SCC6 cells [4]; CCK8+apigenin
  Apigenin 1050: did not reached 1050
UM-SCC6 cells [4]; 10% WST-1r treated UM-SCC6 cells
  IC50: 5 µM
UM-SCC6 cells [4]; 10% XTT treated UM-SCC6 cells
  IC50: 25 µM
UM-SCC6 cells [4]; apigenin only
  Apigenin 1050: did not reached 1050
[5]
  cell death, single agent: no or limited effect of cell death
[6]
  phosphorylation of JNK (ratio phosphorylated over total JNK): dose dependent induction of phosphorylation of JNK
[7]
  cell viabilities, single agent treatment: little effect on cell viabilities

## N.N.[Cl][Pt][Cl] [Cis-Platinum, cis-diamminedichloroplatinum]
HT1080 cells [8]; pUC19 transfected
  IC50 of Cis-Platinum: 0.3 µg/mL
HT1080 cells [8]; untransfecte control
  IC50 of Cis-Platinum: 3 µg/mL
HT1080 cells [8]
  untransfected cells at 96 hours after drug treatment: recovered and grown up
UM-SCC-6 cells; pUC19 transfected
  IC50 of Cis-Platinum: 1 µg/mL
UM-SCC-6 cells; untransfecte control
  IC50 of Cis-Platinum: 3 µg/mL

## CC(=O)O[C@H]1C(=O)[C@@]2(C)[C@H]([C@H](OC(=O)c3ccccc3)[C@]3(O)C[C@H](OC(=O)[C@H](O)[C@@H](NC(=O)c4ccccc4)c4ccccc4)C(C)=C1C3(C)C)[C@]1(OC(C)=O)CO[C@@H]1C[C@@H]2O [Paclitaxel]
HT1080 cells [8]; Homo sapiens, HT-1080, pUC19 transfected HT1080 cells, read-out: IC50 of texal
  IC50: 0.02 µM
HT1080 cells [8]; untransfected HT1080 cells
  response to texal: did not show any response upto 100 nM
HT1080 cells [8]
  untransfected cells at 96 hours after drug treatment: recovered and grown up
HT1080 cells [9]; Homo sapiens, HT-1080, Contrl (untransfected)
  IC50: 0.06 µM
HT1080 cells [9]; Taxel 3-100 nM
  cell survival / cell death: dose dependent cell death

## O=[N+]([O-])c1ccc(-[n+]2nc(-c3ccc(S(=O)(=O)[O-])cc3S(=O)(=O)[O-])nn2-c2ccc(I)cc2)c([N+](=O)[O-])c1.[Na+] [WST-3, 2-(4-Iodophenyl)-3-(2,4-dinitrophenyl)-5-(2,4-disulfophenyl)-2H-tetrazolium, sodium salt]
SK-Mel-5 cells
  cell death, single agent: dose dependent but limited cell death
SK-Mel-5 cells; [13]
  IC50: 20 µM
SK-Mel-5 cells; combination with 30 μM apigenin
  WST-3 IC50 in SK-Mel-5 compared with HEKa cells: one fold less than that from HEKa cells
Non cancer HEKa cells
  cell death, single agent: limited cell death
Non cancer HEKa cells; [13]
  IC50: 40 µM
[5]
  cell death, single agent: no or limited effect of cell death

## COc1cc(-c2ccc(-n3nc(-c4ccc(C(=O)N(CCS(=O)(=O)[O-])CCS(=O)(=O)[O-])cc4)n[n+]3-c3nc4ccccc4s3)c(OC)c2)ccc1-n1nc(-c2ccc(C(=O)N(CCS(=O)(=O)[O-])CCS(=O)(=O)[O-])cc2)n[n+]1-c1nc2ccccc2s1.[Na+].[Na+] [WST-5]
HT1080 cells [10]
  synergistic effect on inducing cell death in combination with apigenin: no such effect
UM-SCC6 cells [11]
  synergistic effect on inducing cell death in combination with apigenin: no such effect
